In ChEMBL document CHEMBL6177951, “Synthesis and anti-MRSA activity of quaternized small molecule antimicrobial peptide mimics based on norharmane” (Eur J Med Chem, 2025):
In brackets after ≈: the same amount, converted by molar mass. Activity calls are given as the source filed them. The calls are words filed in the database; no cut-off is given here.

Key:
Staphylococcus aureus [1] = test: Antibacterial activity against Staphylococcus aureus ATCC 25923 assessed as inhibition of bacterial growth incubated for 14 hrs by two-fold serial dilution method; assay type: functional
Staphylococcus aureus [2] = test: Antibacterial activity against Staphylococcus aureus ATCC 29213 assessed as inhibition of bacterial growth incubated for 14 hrs by two-fold serial dilution method; assay type: functional
Staphylococcus aureus [3] = test: Antibacterial activity against Staphylococcus aureus CMCC 26003 assessed as inhibition of bacterial growth incubated for 14 hrs by two-fold serial dilution method; assay type: functional
Staphylococcus aureus [4] = test: Antibacterial activity against methicillin-resistant Staphylococcus aureus ATCC 43300 assessed as inhibition of bacterial growth incubated for 14 hrs by two-fold serial dilution method; assay type: functional
Staphylococcus aureus [5] = test: Antibacterial activity against methicillin-resistant Staphylococcus aureus ATCC 33591 assessed as inhibition of bacterial growth incubated for 14 hrs by two-fold serial dilution method; assay type: functional
Staphylococcus aureus [6] = test: Antibacterial activity against Staphylococcus aureus ATCC 33591 assessed as resistance development by measuring fold increase in MIC at 0.5 times MIC incubated for 8 hrs and measured after 15 passages; assay type: functional
Staphylococcus aureus [7] = test: Antibacterial activity against Staphylococcus aureus ATCC 33591 assessed as log reduction in bacterial growth at 1 times MIC measured at 6 hrs by time-kill kinetic assay; assay type: functional
Staphylococcus aureus [8] = test: In vivo antibacterial activity against methicillin-resistant Staphylococcus aureus infected in female Kunming mouse skin infection model assessed as log reduction in bacterial load at 5 mg/kg measured after 48 hrs (reference value: 14.34 log10CFU/g); assay type: functional
Staphylococcus aureus [9] = test: In vivo antibacterial activity against methicillin-resistant Staphylococcus aureus infected in female Kunming mouse skin infection model assessed as recovery of dorsal surface at 5 to 20 mg/kg measured after 48 hrs; assay type: functional, organism-based; settings: dose 5-20 mg/kg
Staphylococcus aureus [10] = test: In vivo antibacterial activity against methicillin-resistant Staphylococcus aureus infected in female Kunming mouse skin infection model assessed as reduction in inflammatory cells at 5 to 20 mg/kg measured after 48 hrs by H and E staining based analysis; assay type: functional, organism-based; settings: dose 5-20 mg/kg
Staphylococcus aureus [11] = test: Antibacterial activity against methicillin-resistant Staphylococcus aureus clinical isolate M-13 incubated for 14 hrs by two-fold serial dilution method; assay type: functional
Staphylococcus aureus [12] = test: Antibacterial activity against methicillin-resistant Staphylococcus aureus clinical isolate M-14 incubated for 14 hrs by two-fold serial dilution method; assay type: functional
Staphylococcus aureus [13] = test: Antibacterial activity against methicillin-resistant Staphylococcus aureus clinical isolate M-15 incubated for 14 hrs by two-fold serial dilution method; assay type: functional
Staphylococcus aureus [14] = test: Antibacterial activity against methicillin-resistant Staphylococcus aureus clinical isolate M-16 incubated for 14 hrs by two-fold serial dilution method; assay type: functional
Staphylococcus aureus [15] = test: Antibacterial activity against methicillin-resistant Staphylococcus aureus clinical isolate M-17 incubated for 14 hrs by two-fold serial dilution method; assay type: functional
Staphylococcus aureus [16] = test: Antibacterial activity against methicillin-resistant Staphylococcus aureus clinical isolate M-18 incubated for 14 hrs by two-fold serial dilution method; assay type: functional
Staphylococcus aureus [17] = test: Antibacterial activity against methicillin-resistant Staphylococcus aureus clinical isolate M-19 incubated for 14 hrs by two-fold serial dilution method; assay type: functional
Staphylococcus aureus [18] = test: Antibacterial activity against methicillin-resistant Staphylococcus aureus clinical isolate M-20 incubated for 14 hrs by two-fold serial dilution method; assay type: functional
Staphylococcus aureus [19] = test: Antibacterial activity against methicillin-resistant Staphylococcus aureus clinical isolate M-21 incubated for 14 hrs by two-fold serial dilution method; assay type: functional
Staphylococcus aureus [20] = test: Antibacterial activity against methicillin-resistant Staphylococcus aureus clinical isolate M-22 incubated for 14 hrs by two-fold serial dilution method; assay type: functional
Staphylococcus aureus [21] = test: Antibacterial activity against methicillin-resistant Staphylococcus aureus clinical isolate M-23 incubated for 14 hrs by two-fold serial dilution method; assay type: functional

| Structure (SMILES) | MIC (Staphylococcus aureus [1]) | MIC (Staphylococcus aureus [2]) | MIC (Staphylococcus aureus [3]) | MIC (Staphylococcus aureus [4]) | MIC (Staphylococcus aureus [5]) | other results |
| --- | --- | --- | --- | --- | --- | --- |
| CCCC[n+]1ccc2c3ccccc3n(CC[N+](C)(C)CCCC)c2c1.[Br-].[Br-] | 128 µg/mL | > 128 µg/mL | > 128 µg/mL | > 128 µg/mL | 128 µg/mL | – |
| c1ccc2c(c1)c1ccncc1n2CCCCCCCCCCCCn1c2ccccc2c2ccncc21 | > 128 µg/mL | > 128 µg/mL | > 128 µg/mL | > 128 µg/mL | > 128 µg/mL | – |
| CCCC[n+]1ccc2c3ccccc3n(CCN(CC)CC)c2c1.[Br-] | 16 µg/mL | 128 µg/mL | 16 µg/mL | 64 µg/mL | 64 µg/mL | – |
| CCn1cc(C(=O)O)c(=O)c2cc(F)c(N3CCNCC3)cc21 [NORFLOXACIN] | – | – | – | – | – | fold change (FC) (Staphylococcus aureus [6]): 16 |
| CCC[n+]1ccc2c3ccccc3n(CCN(CC)CC)c2c1.[Br-] | 32 µg/mL | > 128 µg/mL | 32 µg/mL | 128 µg/mL | 128 µg/mL | – |
| C[n+]1ccc2c3ccccc3n(CC[N+](C)(C)C)c2c1.[I-].[I-] | 128 µg/mL | > 128 µg/mL | > 128 µg/mL | > 128 µg/mL | > 128 µg/mL | – |
| CN(C)CCn1c2ccccc2c2ccncc21 | 64 µg/mL (≈ 267 µM) | 64 µg/mL (≈ 267 µM) | > 128 µg/mL | > 128 µg/mL | 128 µg/mL (≈ 535 µM) | – |
| CN[C@H](CC(C)C)C(=O)N[C@H]1C(=O)N[C@@H](CC(N)=O)C(=O)N[C@H]2C(=O)N[C@H]3C(=O)N[C@H](C(=O)N[C@H](C(=O)O)c4cc(O)cc(O)c4-c4cc3ccc4O)[C@H](O)c3ccc(c(Cl)c3)Oc3cc2cc(c3O[C@@H]2O[C@H](CO)[C@@H](O)[C@H](O)[C@H]2O[C@H]2C[C@](C)(N)[C@H](O)[C@H](C)O2)Oc2ccc(cc2Cl)[C@H]1O [VANCOMYCIN] | – | – | – | – | – | Activity (Staphylococcus aureus [7]): 2.74 log10CFU/ml; Activity (Staphylococcus aureus [8]): 4.99 log10CFU/g; Activity (Staphylococcus aureus [9]): Active; Activity (Staphylococcus aureus [10]): Active |
| CCCCC[n+]1ccc2c3ccccc3n(CCN(CC)CC)c2c1.[Br-] | 8 µg/mL | 128 µg/mL | 16 µg/mL | 32 µg/mL | 32 µg/mL | – |
| c1ccc2c(c1)c1ccncc1n2CCCCCCCCCCCn1c2ccccc2c2ccncc21 | > 128 µg/mL | > 128 µg/mL | > 128 µg/mL | > 128 µg/mL | > 128 µg/mL | – |
| CCC[n+]1ccc2c3ccccc3n(CC[N+](C)(C)CCC)c2c1.[Br-].[Br-] | 64 µg/mL | > 128 µg/mL | > 128 µg/mL | > 128 µg/mL | > 128 µg/mL | – |
| C[n+]1ccc2c3ccccc3n(CCCCCCCCCn3c4ccccc4c4cc[n+](C)cc43)c2c1.[I-].[I-] | 4 µg/mL | 2 µg/mL | 0.5 µg/mL | 4 µg/mL | 0.5 µg/mL | MIC (Staphylococcus aureus [11]): 1 µg/mL; MIC (Staphylococcus aureus [12]): 1 µg/mL; MIC (Staphylococcus aureus [13]): 4 µg/mL; MIC (Staphylococcus aureus [14]): 2 µg/mL; MIC (Staphylococcus aureus [15]): 4 µg/mL; MIC (Staphylococcus aureus [16]): 4 µg/mL; MIC (Staphylococcus aureus [17]): 4 µg/mL; MIC (Staphylococcus aureus [18]): 2 µg/mL; MIC (Staphylococcus aureus [19]): 4 µg/mL; MIC (Staphylococcus aureus [20]): 2 µg/mL; MIC (Staphylococcus aureus [21]): 4 µg/mL |
